This is an account of results in patent publication US8143419B2, “Trisubstituted 1,2,4-triazoles” (Janssen Pharmaceutica N. V., priority 2006, dated 2012).

A value given as a limit tells only on which side of the number the result lay.

As usually defined, the melting point is the temperature, or range, at which the solid turns liquid. As a reminder, the EC50 is the concentration at which the effect is half-maximal.

One data set deals with T1, hα7-wt nAChR (Homo sapiens, UniProt P36544).
T1 construct: expressed in transfected cells
T1 sequence (P36544 23-502): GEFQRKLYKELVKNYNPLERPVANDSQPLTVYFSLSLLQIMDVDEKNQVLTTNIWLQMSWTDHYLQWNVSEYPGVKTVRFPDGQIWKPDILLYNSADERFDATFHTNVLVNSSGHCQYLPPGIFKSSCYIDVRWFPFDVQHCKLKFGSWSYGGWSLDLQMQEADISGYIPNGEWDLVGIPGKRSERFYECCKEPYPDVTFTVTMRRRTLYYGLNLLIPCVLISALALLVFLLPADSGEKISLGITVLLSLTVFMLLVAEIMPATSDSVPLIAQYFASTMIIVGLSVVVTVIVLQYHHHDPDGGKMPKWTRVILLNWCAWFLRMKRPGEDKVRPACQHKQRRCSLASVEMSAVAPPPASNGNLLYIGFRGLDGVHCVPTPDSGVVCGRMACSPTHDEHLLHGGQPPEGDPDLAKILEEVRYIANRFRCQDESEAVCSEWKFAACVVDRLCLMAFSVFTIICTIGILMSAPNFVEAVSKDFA
Briefly: Ca2+ flux imaging (FLIPR) (Protocol A), PAM activity with choline as agonist. It counts as cell-based. The note with it: for EC50: "<5" = no top plateau at maximal concentration; for Emax: read-out: % efficacy. An excerpt: Stable expression in mammalian cells in general and rat GH4C1 cells in particular, of cDNA clones encoding the human α7 wild-type sequence (hα7-wt nAChR) and in which the coding region is placed downstream of a promoter results in the appearance of functional α7 nAChRs on the surface of the mammalian cells. This technique has provided a powerful means of assessing the function of α7 wild-type protein. Given the fact that the cation permeability of the α7 nicotinic receptor preferentially favours calcium, fluorescent imaging of Ca^2+ flux through the hα7-wt nAChR stably expressed in the GH4C1 cell line was used as a first means of assaying modulator activity of the compounds of the present invention.
• Hanks buffered saline solution (HBSS, Invitrogen, Belgium), supplemented with 10 mM HEPES (Invitrogen, Belgium), CaCl2 to a final concentration of 5 mM, 0.1% Bovine serum albumin (Sigma-Aldrich NV, Belgium), 2.5 mM probenecid (Sigma-Aldrich NV, Belgium). b) Calcium-Sensitive Dye—Fluo-4AM • Fluo-4AM (Molecular Probes, USA) was dissolved in DMSO containing 10% Pluronic acid (Molecular Probes, USA) to give a stock solution which was aliquoted and stored at −20° C. until later use. On the day of the experiment Fluo-4AM stock was defrosted and diluted in DMEM/F12 (Invitrogen, Belgium) to give a final concentration of 4 μM. c) 96-Well Plates • BD Biocoat poly-D-lysine 96-well black/clear plates (BD Biosciences, Belgium) d) Calcium Flux Measurement • A Fluorimetric Imaging Plate Reader (FLIPR, Molecular Devices Corporation, Sunnyvale, USA) was used to measure intracellular free-calcium flux signals Method
Monolayers of hα7-wt nAChR-expressing cells were grown in multi-well plates, in particular black-sided, transparent bottomed 96 well plates coated with poly-D-lysine for 24 hours prior to loading with a fluorescent calcium indicator, in a particular embodiment loading with fluo-3 or fluo-4AM for up to 90 minutes, in an even more particular embodiment loading with fluo-4AM for up to 90 minutes, and in a preferred embodiment loading with fluo-4AM for up to 60 minutes.
PAM activity was detected in real time by applying the compounds to be tested to the loaded cells along with a α7 nicotinic receptor agonist during constant monitoring of cellular fluorescence in a FLIPR. Compounds giving peak fluorescent responses greater than the response due to agonist alone, were considered to be α7 nAChR PAM's. In a particular embodiment, the α7 nicotinic receptor agonist was choline, a more particular embodiment choline applied at a sub-maximal concentration of 100 μM. In a further setting of the present invention the compounds to be tested were applied prior to the α7 nicotinic receptor agonist, in a particular embodiment up to 20 minutes prior to the agonist, a more particular embodiment up to 10 minutes prior to the agonist, and an even more particular embodiment 10 minutes prior to the agonist.
A control response to choline was calculated on each plate from the difference in peak in fluorescence in wells receiving either choline or assay buffer alone. Compounds of the present invention were tested at a concentration range from 0.1 μM to 50 μM. Compounds were considered to have an interesting activity when their efficacy was at least 500% when tested at the concentration where they have a maximal effect, typically between 0.1 μM and 50 μM (the efficacy of 100 μM choline was defined as 100% in the absence of a PAM). The compounds also have a potentiating effect on the response to choline when measured by whole-cell patch clamp electrophysiology in GH4C1 cells stably over-expressing the human wild-type α7 receptor.
In general terms: Calcium flux is commonly read through the fluorescence of an indicator in the cells.

For `OCCn1nc(Nc2cccc(C(F)(F)F)c2)nc1-c1ccc2c(c1)OCCO2` [Compound 3], the melting point fell in the range of 188.3 to 190.3 °C. For the same compound, the EC50 at hα7-wt nAChR is 3.16 µM.
`CN(C)C(=O)CCn1nc(Nc2cccc(C(F)(F)F)c2)nc1-c1ccc2c(c1)OCCO2` [Compound 6] returned a melting point of 195.7 to 196.6 °C. For the same compound, the EC50 on hα7-wt nAChR is 0.158 µM.
Consider `OCCn1nc(Nc2cccc(C(F)(F)F)c2)nc1-c1ccnc(Cl)c1` [Compound 7], for which the EC50 at hα7-wt nAChR is 6.31 µM.
As to `CNC(=O)CCn1nc(Nc2cccc(C(F)(F)F)c2)nc1-c1ccncc1` [Compound 11], on hα7-wt nAChR, the EC50 was above 10 µM and the Emax stood at 938%.
With `CNC(=O)Cn1nc(Nc2cccc(C(F)(F)F)c2)nc1-c1ccc(Cl)cc1Cl` [Compound 13], the melting point lay within 179.9 to 182.1 °C. Further, the EC50 on hα7-wt nAChR is 2 µM.
On to `OCCn1nc(Nc2cccc(C(F)(F)F)c2)nc1-c1cccnc1` [Compound 16], for which the melting point is 158.2 to 159 °C. In addition, at hα7-wt nAChR, the EC50 is 7.94 µM and the Emax worked out at 583%.
On to `Cn1nc(Nc2ccccc2)nc1-c1ccc(Cl)cc1Cl` [Compound 18], for which the melting point was 193 to 194 °C. Besides, the 50% effective concentration (EC50) on hα7-wt nAChR is above 10 µM.
For `NC(=O)Cn1nc(Nc2cccc(C(F)(F)F)c2)nc1-c1ccc(Cl)cc1Cl` [Compound 20], in that order: 203.6 to 206.4 °C and above 10 µM.
With `CN(C)C(=O)Cn1nc(Nc2cccc(C(F)(F)F)c2)nc1-c1ccc2c(c1)OCCO2` [Compound 23], the EC50 at hα7-wt nAChR is above 10 µM.
The compound `CC(=O)NCCCn1nc(Nc2ccc(F)c(C(F)(F)F)c2)nc1-c1ccnc(C)c1` [Compound 27] yielded a melting point of 171.2 °C. Further, the EC50 at hα7-wt nAChR is above 10 µM.
On the same counts, the results for `OCCn1nc(Nc2cccc(C(F)(F)F)c2)nc1-c1ccnc(N2CCOCC2)c1` [Compound 38] are 167.4 °C and 3.98 µM.
In turn, `COCCn1nc(Nc2cccc(C(F)(F)F)c2)nc1-c1ccncc1` [Compound 52] had a melting point of 147.2 °C. For the same compound, on hα7-wt nAChR, the EC50 is 7.94 µM and the Emax was 641%.
Take `OCCn1nc(Nc2cccc(C(F)(F)F)c2)nc1-c1cnc2c(c1)OCC2` [Compound 78]: the melting point turned out to be 173.1 °C. At hα7-wt nAChR, the EC50 was above 10 µM.
Take `OCCn1nc(Nc2cccc(C(F)(F)F)c2)nc1-c1cnc2ccoc2c1` [Compound 79]: the melting point was determined as 158.8 °C. Besides, the EC50 at hα7-wt nAChR is above 10 µM.
In turn, `OCCn1nc(Nc2cccc(C(F)(F)F)c2)nc1-c1cnc2ccccc2c1` [Compound 80] returned a melting point of 182 °C. Moreover, the EC50 on hα7-wt nAChR was 3.16 µM.
As to `CCOC(=O)Cn1nc(Nc2cccc(C(F)(F)F)c2)nc1-c1ccc2c(c1)OCO2` [Compound 81], the melting point was 149.2 °C. The EC50 on hα7-wt nAChR is above 10 µM.
As to `C[C@@H](O)Cn1nc(Nc2ccc(F)c(C(F)(F)F)c2)nc1-c1ccc(C2CC2)nc1` [Compound 100], the EC50 at hα7-wt nAChR was 3.98 µM.
The compound `CN(C)C(=O)CCn1nc(N(C)c2ccc(F)c(C(F)(F)F)c2)nc1-c1ccc2c(c1)OCCO2` [Compound 135] yielded a melting point of 113.1 to 115.1 °C. For the same compound, on hα7-wt nAChR, the EC50 is 3.16 µM.
For `CC(O)Cn1nc(Nc2cccc(OC(F)(F)F)c2)nc1-c1ccc(C2CC2)nc1` (centres unmarked) [Compound 150], in that order: 125.5 °C and 3.98 µM.
Regarding `FCCn1nc(Nc2cccc(OC(F)(F)F)c2)nc1-c1ccnc(C2CC2)c1` [Compound 152], on hα7-wt nAChR, the EC50 was 3.98 µM.
For `C[C@H](O)Cn1nc(Nc2ccc(F)c(F)c2)nc1-c1ccnc(C2CC2)c1` [Compound 175], the melting point stood at 131.4 °C. In addition, on hα7-wt nAChR, the EC50 is 2.51 µM and the Emax is 904%.
Consider `FCCn1nc(Nc2cc(F)cc(F)c2)nc1-c1ccnc(C2CC2)c1` [Compound 177], for which the melting point worked out at 150.3 °C. Besides, the EC50 on hα7-wt nAChR was 3.98 µM.
Compound `CNC(=O)Cn1nc(Nc2cc(F)cc(F)c2)nc1-c1ccnc(NC)c1` [Compound 178] displayed a melting point of 247 °C. Besides, the EC50 on hα7-wt nAChR was above 10 µM.
On to `COc1ccc(Cl)c(Nc2nc(-c3ccc4c(c3)OCCO4)n(CCC(=O)N(C)C)n2)c1` [Compound 196], for which the melting point lay in the range of 134.7 to 136.7 °C. The EC50 at hα7-wt nAChR was 3.16 µM.
